Data as given in article PMC7881012, “Human ACE2 peptide-mimics block SARS-CoV-2 pulmonary cells infection” (Communications Biology, 2021).
Like-named read-outs stand apart in the source and are kept apart here. Square brackets hold non-standard residues; d marks the D form. Peptide text beside a SMILES is read from it. hTyr = N[C@@H](CCc1ccc(O)cc1)C(=O)O

What was measured:
Vero-E6 cells [1] = conditions: 10 µM
Calu-3 cells [2] = conditions: 10 μM (150 times the IC50); MTT and annexin-V/PI, 24, 48 or 72 h (Fig. 3f)
[3] = test system: SARS-CoV-2 clinical isolate SARS-CoV-2/PSL2020 in Vero-E6 cells; conditions: for % Inhibition, Moyenne / % Inhibition, Q2 (Median): clinical isolate /PSL2020 in Vero-E6 cells, 48 h, 10 µM; for % Inhibition of SARSCoV-2 replication at 10 μM: mean of at least three independent experiments
Calu-3 cells [4] = test system: Calu-3 cells
[5] = test system: SARS-CoV-2 clinical isolate SARS-CoV-2/PSL2020 in Calu-3 cells; conditions: clinical isolate /PSL2020 in Calu-3 cells, 48 h
[6] = Helical content by circular dichroism; assay type: physicochemical; conditions: 60 µM peptide, 50 mM sodium phosphate buffer pH 7.4, 25 °C, DichroWeb CDSSTR deconvolution
Excerpt: The conformation of synthesized peptides in aqueous solution was investigated by circular dichroism (CD) spectroscopy. […] The deconvolution of the CD spectra using DichroWeb[25] allowed us to estimate the helical population for each peptide, which is reported in Table 1. Overall, an excellent agreement was observed between the Agadir-computed values and the experimental helical population inferred from CD data. […] The introduction of a proline residue in peptide P5 has a strong destabilizing effect on helical conformation (17%) whereas Leu/hTyr substitution only led to a slight decrease of the helical content (P7 versus P6 and P10 versus P8).
Fig. 2 Far-UV CD spectra of synthesized peptides. […] CD measurements are reported as molar ellipticity per residue.
CD spectra were recorded on a Jasco J-815 CD spectropolarimeter equipped with a Peltier temperature controller. Data were obtained at 25 °C over a wavelength range between 185 nm and 270 nm, using a wavelength interval of 0.2 nm and a scan rate of 20 nm min^−1. Peptide samples were prepared at a concentration of 60 µM in 50 mM sodium phosphate buffer, pH 7.4, in a quartz cell of 1 mm path length. CD experiments were processed and plotted with R program. CD spectra were analyzed using DICHROWEB web server and CDSSTR deconvolution algorithm.

[7] = HPLC retention time (LC-MS method B); assay type: physicochemical; conditions: method B: X-Select CSH C18 XP, 0.1% formic acid water/acetonitrile, 5-100% B in 3.2 min, 1.8 mL min^−1, 40 °C; used as indicator of hydrophobicity
Vero-E6 cells [8] = conditions: for toxicity in Vero-E6: MTT 0.1-10 µM and annexin-V/PI 10 µM, 24, 48 or 72 h (Fig. 3c)
[9] = test system: SARS-CoV-2 clinical isolate SARS-CoV-2/PSL2020 in Calu-3 cells; assay type: cell-based; conditions: for efficacy in reducing SARS-CoV-2 viral titers: pulmonary cells, 1 µM
[10] = target: SARS-CoV-2 spike RBD (Fc-tagged 2019-nCoV RBD-SD1) (Severe acute respiratory syndrome coronavirus 2, UniProt P0DTC2); assay: biochemical; assay type: binding; conditions: for kon: read-out: ka, association constant; for koff: read-out: kdis, dissociation constant; for Kd: Table 1 of the earlier manuscript version, quoted by Reviewer #2, superseded
[11] = EXP1, peptide 10 µM, 24 h (0 µM: 16%)
[12] = EXP1, peptide 10 µM, 48 h (0 µM: 18%)
[13] = EXP1, peptide 10 µM, 72 h (0 µM: 23%)
[14] = EXP2, peptide 10 µM, 24 h (0 µM: 13%)
[15] = EXP2, peptide 10 µM, 48 h (0 µM: 17%)
[16] = EXP2, peptide 10 µM, 72 h (0 µM: 20%)
[17] = EXP3, peptide 10 µM, 24 h (Vehicle: 15%)
[18] = EXP3, peptide 10 µM, 48 h (Vehicle: 18%)
[19] = EXP3, peptide 10 µM, 72 h (Vehicle: 22%)
[20] = BLI EXP1, sample conc. ACE2 10 nM, P8 100 nM, P9 and P10 1000 nM
[21] = BLI EXP2, sample conc. ACE2 100 nM, P8 1000 nM, P9 and P10 1111 nM
[22] = BLI EXP3, sample conc. ACE2 100 nM, P9 10000 nM, P10 1000 nM

## CSCC[C@H](NC(=O)[C@H](Cc1ccccc1)NC(=O)[C@H](CCCCN)NC(=O)[C@H](CC(=O)O)NC(=O)[C@H](CC(C)C)NC(=O)[C@H](Cc1ccccc1)NC(=O)[C@@H](NC(=O)[C@H](CCCCN)NC(=O)[C@H](CCc1ccc(O)cc1)NC(=O)[C@H](CCC(N)=O)NC(=O)[C@H](CCC(=O)O)NC(=O)[C@H](CCC(=O)O)NC(=O)[C@H](CC(C)C)NC(=O)[C@H](C)NC(=O)[C@@H](N)CO)[C@@H](C)O)C(=O)N[C@@H](Cc1c[nH]cn1)C(=O)N[C@@H](CCC(=O)O)C(=O)N[C@@H](CC(C)C)C(=O)N[C@@H](CCC(=O)O)C(=O)N[C@@H](CC(=O)O)C(=O)N[C@@H](CC(C)C)C(=O)N[C@@H](CC(C)C)C(=O)N[C@@H](Cc1ccc(O)cc1)C(=O)N[C@@H](CCC(N)=O)C(=O)N[C@@H](CC(C)C)C(=O)N[C@@H](CO)C(=O)N[C@@H](CC(C)C)C(N)=O [P9] (H-SALEEQ[hTyr]KTFLDKFMHELEDLLYQLSL-NH2)
Vero-E6 cells [1]; 24 h, EXP1, flow cytometry
  Cell death (AnnV+PI): 3.3%
Vero-E6 cells [1]; 24 h, EXP2, flow cytometry
  Cell death (AnnV+PI): 4.72%
Vero-E6 cells [1]; 24 h, EXP3, flow cytometry
  Cell death (AnnV+PI): 3.62%
Vero-E6 cells [1]; 48 h, EXP1, flow cytometry
  Cell death (AnnV+PI): 9%
Vero-E6 cells [1]; 48 h, EXP2, flow cytometry
  Cell death (AnnV+PI): 7%
Vero-E6 cells [1]; 48 h, EXP3, flow cytometry
  Cell death (AnnV+PI): 8%
Vero-E6 cells [1]; 72 h, EXP1, flow cytometry
  Cell death (AnnV+PI): 4.4%
Vero-E6 cells [1]; 72 h, EXP2, flow cytometry
  Cell death (AnnV+PI): 2.34%
Vero-E6 cells [1]; 72 h, EXP3, flow cytometry
  Cell death (AnnV+PI): 2.25%
Calu-3 cells [2]
  cytotoxicity in uninfected Calu-3 cells: no cytotoxicity
[3]
  % Inhibition, Moyenne: 94.5%
  % Inhibition, Q2 (Median): 94.5%
Calu-3 cells [4]; [11]
  Cell death (AnnV+PI): 21%
Calu-3 cells [4]; [12]
  Cell death (AnnV+PI): 19%
Calu-3 cells [4]; [13]
  Cell death (AnnV+PI): 19%
Calu-3 cells [4]; [14]
  Cell death (AnnV+PI): 16%
Calu-3 cells [4]; [15]
  Cell death (AnnV+PI): 19%
Calu-3 cells [4]; [16]
  Cell death (AnnV+PI): 23%
Calu-3 cells [4]; [17]
  Cell death (AnnV+PI): 20%
Calu-3 cells [4]; [18]
  Cell death (AnnV+PI): 20%
Calu-3 cells [4]; [19]
  Cell death (AnnV+PI): 22%
[5]
  IC50: 53 nM
[6]
  Experimental helical content%: 53%
[7]
  RT, HPLC retention time: 2,31 min
Vero-E6 cells [8]; 48 h, 10 µM
  Cell viability (MTT): 95%
Vero-E6 cells [8]
  toxicity in Vero-E6: devoid of toxicity
[9]
  SARSCoV-2 virus titer at 1 μM (PFU mL^−1) on Calu-3: 0 PFU mL^−1
  efficacy in reducing SARS-CoV-2 viral titers: 100%
[10]; [20]
  kon: 1020 M⁻¹ s⁻¹
  koff: < 1e-07 s⁻¹
[10]; [21]
  kon: 1100 M⁻¹ s⁻¹
  koff: < 1e-07 s⁻¹
[10]; [22]
  kon: 254 M⁻¹ s⁻¹
  koff: < 1e-07 s⁻¹
[10]
  Kd: < 1 nM

## CSCC[C@H](NC(=O)[C@H](Cc1ccccc1)NC(=O)[C@H](CCCCN)NC(=O)[C@H](CC(=O)O)NC(=O)[C@H](CC(C)C)NC(=O)[C@H](Cc1ccccc1)NC(=O)[C@@H](NC(=O)[C@H](CCCCN)NC(=O)[C@H](CCc1ccc(O)cc1)NC(=O)[C@H](CCC(N)=O)NC(=O)[C@H](CCC(=O)O)NC(=O)[C@H](CCC(=O)O)NC(=O)[C@H](CC(C)C)NC(=O)[C@H](C)NC(=O)[C@@H](N)CO)[C@@H](C)O)C(=O)N[C@@H](Cc1c[nH]cn1)C(=O)N[C@@H](CCC(=O)O)C(=O)N[C@@H](CC(C)C)C(=O)N[C@@H](CCC(=O)O)C(=O)N[C@@H](CC(=O)O)C(=O)N[C@@H](CC(C)C)C(=O)N[C@@H](CC(C)C)C(=O)N[C@@H](Cc1ccc(O)cc1)C(=O)N[C@@H](CCC(N)=O)C(=O)N[C@@H](CC(C)C)C(=O)N[C@@H](C)C(=O)N[C@@H](CC(C)C)C(N)=O [P10] (H-SALEEQ[hTyr]KTFLDKFMHELEDLLYQLAL-NH2)
Vero-E6 cells [1]; 24 h, EXP1, flow cytometry
  Cell death (AnnV+PI): 4%
Vero-E6 cells [1]; 24 h, EXP2, flow cytometry
  Cell death (AnnV+PI): 5.38%
Vero-E6 cells [1]; 24 h, EXP3, flow cytometry
  Cell death (AnnV+PI): 5.49%
Vero-E6 cells [1]; 48 h, EXP1, flow cytometry
  Cell death (AnnV+PI): 7%
Vero-E6 cells [1]; 48 h, EXP2, flow cytometry
  Cell death (AnnV+PI): 5.69%
Vero-E6 cells [1]; 48 h, EXP3, flow cytometry
  Cell death (AnnV+PI): 6.33%
Vero-E6 cells [1]; 72 h, EXP1, flow cytometry
  Cell death (AnnV+PI): 4%
Vero-E6 cells [1]; 72 h, EXP2, flow cytometry
  Cell death (AnnV+PI): 2.55%
Vero-E6 cells [1]; 72 h, EXP3, flow cytometry
  Cell death (AnnV+PI): 3%
Calu-3 cells [2]
  cytotoxicity in uninfected Calu-3 cells: no cytotoxicity
[3]
  % Inhibition of SARSCoV-2 replication at 10 μM: 95%
  % Inhibition, Moyenne: 95.1%
  % Inhibition, Q2 (Median): 95.1%
Calu-3 cells [4]; [11]
  Cell death (AnnV+PI): 23%
Calu-3 cells [4]; [12]
  Cell death (AnnV+PI): 19%
Calu-3 cells [4]; [13]
  Cell death (AnnV+PI): 23%
Calu-3 cells [4]; [14]
  Cell death (AnnV+PI): 17%
Calu-3 cells [4]; [15]
  Cell death (AnnV+PI): 20%
Calu-3 cells [4]; [16]
  Cell death (AnnV+PI): 22%
Calu-3 cells [4]; [17]
  Cell death (AnnV+PI): 19%
Calu-3 cells [4]; [18]
  Cell death (AnnV+PI): 19%
Calu-3 cells [4]; [19]
  Cell death (AnnV+PI): 19%
[5]
  IC50: 42 nM
[6]
  Experimental helical content%: 56%
[7]
  RT, HPLC retention time: 2,34 min
Vero-E6 cells [8]; 72 h, 1 µM
  Cell viability (MTT): 96%
Vero-E6 cells [8]
  toxicity in Vero-E6: devoid of toxicity
[9]
  SARSCoV-2 virus titer at 1 μM (PFU mL^−1) on Calu-3: 0 PFU mL^−1
  efficacy in reducing SARS-CoV-2 viral titers: 100%
[10]; [20]
  kon: 2490 M⁻¹ s⁻¹
  koff: < 1e-07 s⁻¹
[10]; [21]
  kon: 1410 M⁻¹ s⁻¹
  koff: < 1e-07 s⁻¹
[10]; [22]
  kon: 1430 M⁻¹ s⁻¹
  koff: < 1e-07 s⁻¹
[10]
  Kd: < 1 nM

## Ac-SALEEQLKTFLDKFLHELEDLLYQLAL-NH2 [P4]
[3]
  % Inhibition of SARSCoV-2 replication at 10 μM: 24%
  % Inhibition, Moyenne: 24.0%
  % Inhibition, Q2 (Median): 16.9%
[6]
  Experimental helical content%: 70%
[7]
  RT, HPLC retention time: 2,69 min

## H-AHLFSYLTTKEEQDNDAIFLQEFSKES-NH2 [P1scr, reference compound]
[3]
  % Inhibition of SARSCoV-2 replication at 10 μM: 7%
  % Inhibition, Moyenne: 6.7%
  % Inhibition, Q2 (Median): 6.4%
[6]
  Experimental helical content%: 8%
[7]
  RT, HPLC retention time: 1,54 min

## H-SALEEQLKTFLDKFLHELEDLLYQLAL-NH2 [P3]
[3]
  % Inhibition of SARSCoV-2 replication at 10 μM: 4%
  % Inhibition, Moyenne: 3.9%
  % Inhibition, Q2 (Median): 3.3%
[6]
  Experimental helical content%: 64%
[7]
  RT, HPLC retention time: 2,53 min

## H-SALEEQLKTFLDKFLHELEDLLYQLALAL-NH2 [P6]
[3]
  % Inhibition, Moyenne: 6.5%
  % Inhibition, Q2 (Median): 4.9%
[6]
  Experimental helical content%: 80%
[7]
  RT, HPLC retention time: 2,74 min

## H-SALEEQLKTFLDKFLHELEDLLYQLSL-NH2 [P2]
[3]
  % Inhibition of SARSCoV-2 replication at 10 μM: 16%
  % Inhibition, Moyenne: 16.0%
  % Inhibition, Q2 (Median): 20.0%
[6]
  Experimental helical content%: 70%
[7]
  RT, HPLC retention time: 1.47 min

## H-SALEEQLKTFLDKFLHELEDPLYQLAL-NH2 [P5]
[3]
  % Inhibition of SARSCoV-2 replication at 10 μM: 27%
  % Inhibition, Moyenne: 26.6%
  % Inhibition, Q2 (Median): 20.4%
[6]
  Experimental helical content%: 17%
[7]
  RT, HPLC retention time: 2,16 min
